# Key:
# Test in all cases: NCI-60 SRB screening (one-dose and five-dose)
# Format in all cases: cell-based, human
# [1] = tested on: HS 578T; conditions: 48 h
# Method: (§1) The compounds were added at a single concentration and the cell cultures were incubated for 48 h. The end point determinations were made with a protein binding dye, sulforhodamine B (SRB). […] The percentage of growth was evaluated spectrophotometrically versus controls not treated with test agents after 48-h exposure and using SRB protein assay to estimate cell viability or growth. […] Furthermore, mean graph midpoints (MG_MID) were calculated for each of the parameters, giving an average activity parameter over all cell lines for the tested compound. For the MG_MID calculation, insensitive cell lines were included with the highest concentration tested.
# [2] = tested on: HT29; conditions: 48 h
# Method: as §1
# [3] = tested on: MDA-MB-468; conditions: 48 h
# Method: as §1
# [4] = tested on: HOP-62; conditions: 48 h
# Method: as §1
# [5] = tested on: LOX IMVI; conditions: 48 h
# Method: as §1
# [6] = tested on: T-47D; conditions: 48 h
# Method: as §1
# [7] = tested on: SK-MEL-5; conditions: 48 h
# Method: as §1
# [8] = tested on: MOLT-4; conditions: 48 h
# Method: as §1
# [9] = tested on: DU-145; conditions: 48 h
# Method: as §1
# [10] = tested on: SF-295; conditions: 48 h
# Method: as §1
# [11] = tested on: OVCAR-5; conditions: 48 h
# Method: as §1
# [12] = tested on: SR; conditions: 48 h
# Method: as §1
# [13] = tested on: U251; conditions: 48 h
# Method: as §1
# [14] = tested on: 786-0; conditions: 48 h
# Method: as §1
# [15] = tested on: SNB-19; conditions: 48 h
# Method: as §1
# [16] = tested on: CAKI-1; conditions: 48 h
# Method: as §1
# [17] = tested on: HCT-15; conditions: 48 h
# Method: as §1
# [18] = tested on: UO-31; conditions: 48 h
# Method: as §1
# [19] = tested on: SF-539; conditions: 48 h
# Method: as §1
# [20] = tested on: MALME-3M; conditions: 48 h
# Method: as §1
# [21] = tested on: TK-10; conditions: TK-10, 10 μM, 48 h
# Method: as §1
# [22] = tested on: MDA-MB-435; conditions: 48 h
# Method: as §1
# [23] = tested on: OVCAR-8; conditions: 48 h
# Method: as §1
# [24] = tested on: UACC-257; conditions: 48 h
# Method: as §1
# [25] = tested on: HOP-92; conditions: 48 h
# Method: as §1
# [26] = tested on: SK-MEL-2; conditions: 48 h
# Method: as §1
# [27] = tested on: ACHN; conditions: 48 h
# Method: as §1
# [28] = tested on: SN12C; conditions: 48 h
# Method: as §1
# [29] = tested on: OVCAR-3; conditions: 48 h
# Method: as §1
# [30] = tested on: SW-620; conditions: 48 h
# Method: as §1
# [31] = tested on: RXF 393; conditions: 48 h
# Method: as §1
# [32] = tested on: IGROV1; conditions: 48 h
# Method: as §1
# [33] = tested on: SK-OV-3; conditions: 48 h
# Method: as §1
# [34] = tested on: HCT-116; conditions: 48 h
# Method: as §1
# [35] = tested on: HCC-2998; conditions: 48 h
# Method: as §1
# [36] = tested on: MDA-MB-231/ATCC; conditions: 48 h
# Method: as §1
# [37] = tested on: CCRF-CEM; conditions: 48 h
# Method: as §1
# [38] = tested on: A549/ATCC; conditions: 48 h
# Method: as §1
# [39] = tested on: NCI-H322M; conditions: 10 μM, 48 h
# Method: as §1
# [40] = tested on: NCI-H522; conditions: Homo sapiens; NCI-H522, five dose 0.01–100 μM, 48 h
# Method: as §1
# [41] = Homo sapiens, five dose 0.01–100 μM
compound,measurement,setting,value
"CC(=O)[C@H]1C[C@]23CC[C@]4(C)[C@H](CC[C@@H]5[C@@]6(C)CCC(=O)C(C)(C)[C@@H]6CC[C@]54C)[C@H]2[C@H](C)[C@@]1(C)OC3 [Compound 2, 3-oxo-21β-acetyl-20β,28-epoxy-18α,19βH-ursane]",Growth Percent,[1]; 10 μM,103.91%
same,Growth Percent,"[2]; HT29, 10 μM",108.96%
same,Growth Percent,"[3]; MDA-MB-468, 10 μM",108.53%
same,Growth Percent,"[4]; HOP-62, 10 μM",80.72%
same,Growth Percent,[5]; 10 μM,94.48%
same,Growth Percent,"[6]; T-47D, 10 μM",106.29%
same,Growth Percent,"[7]; SK-MEL-5, 10 μM",100.12%
same,Growth Percent,"[8]; MOLT-4, 10 μM",100.88%
same,Growth Percent,"[9]; DU-145, 10 μM",98.96%
same,Growth Percent,"[10]; SF-295, 10 μM",99.35%
same,Growth Percent,"[11]; OVCAR-5, 10 μM",96.55%
same,Growth Percent,[12]; 10 μM,92.32%
same,Growth Percent,"[13]; U251, 10 μM",107.36%
same,Growth Percent,"[14]; 786-0, 10 μM",89.64%
same,Growth Percent,"[15]; SNB-19, 10 μM",98.03%
same,Growth Percent,"[16]; CAKI-1, 10 μM",66.38%
same,Growth Percent,"[17]; HCT-15, 10 μM",111.38%
same,Growth Percent,"[18]; UO-31, 10 μM",66.99%
same,Growth Percent,"[19]; SF-539, 10 μM",95.15%
same,Growth Percent,[20]; 10 μM,109.60%
same,Growth Percent,[21],76.40%
same,Growth Percent,"[22]; MDA-MB-435, 10 μM",100.67%
same,Growth Percent,"[23]; OVCAR-8, 10 μM",104.68%
same,Growth Percent,"[24]; UACC-257, 10 μM",103.91%
same,Growth Percent,"[25]; HOP-92, 10 μM",95.88%
same,Growth Percent,"[26]; SK-MEL-2, 10 μM",105.22%
same,Growth Percent,[27]; 10 μM,99.80%
same,Growth Percent,[28]; 10 μM,87.69%
same,Growth Percent,"[29]; OVCAR-3, 10 μM",119.38%
same,Growth Percent,"[30]; SW-620, 10 μM",95.81%
same,Growth Percent,"[31]; RXF 393, 10 μM",76.40%
same,Growth Percent,"[32]; IGROV1, 10 μM",88.93%
same,Growth Percent,"[33]; SK-OV-3, 10 μM",118.18%
same,Growth Percent,"[34]; HCT-116, 10 μM",100.51%
same,Growth Percent,"[35]; HCC-2998, 10 μM",109.84%
same,Growth Percent,[36]; 10 μM,85.22%
same,Growth Percent,[37]; 10 μM,104.98%
same,Growth Percent,[38]; 10 μM,93.03%
same,Growth Percent,[39],106.71%
"COc1cccc2c1C(=O)c1c(O)c3c(c(O)c1C2=O)C[C@@](O)(C(=O)CO)C[C@@H]3O[C@H]1C[C@H](N)[C@H](O)[C@H](C)O1 [Doxorubicin, reference compound]",GI50,[1]; [41],330 nM
same,GI50,"[2]; Homo sapiens, HT-29, HT29, five dose 0.01–100 μM",120 nM
same,GI50,"[3]; Homo sapiens, MDA-MB-468, five dose 0.01–100 μM",50 nM
same,GI50,"[4]; Homo sapiens, HOP-62, five dose 0.01–100 μM",70 nM
same,GI50,[5]; [41],70 nM
same,GI50,"[6]; Homo sapiens, T47D, T -47D, five dose 0.01–100 μM",60 nM
same,GI50,"[7]; Homo sapiens, SK-MEL-5, five dose 0.01–100 μM",80 nM
same,GI50,"[8]; Homo sapiens, MOLT-4, five dose 0.01–100 μM",30 nM
same,GI50,"[9]; Homo sapiens, DU-145, five dose 0.01–100 μM",110 nM
same,GI50,"[10]; Homo sapiens, SF-295, five dose 0.01–100 μM",100 nM
same,GI50,"[11]; Homo sapiens, OVCAR-5, five dose 0.01–100 μM",410 nM
same,GI50,[12]; [41],30 nM
same,GI50,"[13]; Homo sapiens, U-251, U251, five dose 0.01–100 μM",40 nM
same,GI50,"[14]; Homo sapiens, 786-0, five dose 0.01–100 μM",130 nM
same,GI50,"[15]; Homo sapiens, SNB-19, five dose 0.01–100 μM",40 nM
same,GI50,"[16]; Homo sapiens, CAKI-1, five dose 0.01–100 μM",950 nM
same,GI50,"[17]; Homo sapiens, HCT-15, five dose 0.01–100 μM",6460 nM
same,GI50,"[18]; Homo sapiens, UO-31, five dose 0.01–100 μM",490 nM
same,GI50,"[19]; Homo sapiens, SF-539, five dose 0.01–100 μM",120 nM
same,GI50,[20]; [41],120 nM
same,GI50,"[22]; Homo sapiens, MDA-MB-435, MDA-B-435, five dose 0.01–100 μM",250 nM
same,GI50,"[23]; Homo sapiens, OVCAR-8, five dose 0.01–100 μM",100 nM
same,GI50,"[24]; Homo sapiens, UACC-257, five dose 0.01–100 μM",140 nM
same,GI50,"[25]; Homo sapiens, HOP-92, five dose 0.01–100 μM",100 nM
same,GI50,"[26]; Homo sapiens, SK-MEL-2, five dose 0.01–100 μM",170 nM
same,GI50,[27]; [41],80 nM
same,GI50,[28]; [41],70 nM
same,GI50,"[29]; Homo sapiens, OVCAR-3, five dose 0.01–100 μM",390 nM
same,GI50,"[30]; Homo sapiens, SW-620, five dose 0.01–100 μM",90 nM
same,GI50,[40],30 nM
same,GI50,"[31]; Homo sapiens, RXF 393, five dose 0.01–100 μM",100 nM
same,GI50,"[32]; Homo sapiens, IGROV-1, IGROV1, five dose 0.01–100 μM",170 nM
same,GI50,"[33]; Homo sapiens, SK-OV-3, five dose 0.01–100 μM",220 nM
same,GI50,"[34]; Homo sapiens, HCT-116, five dose 0.01–100 μM",80 nM
same,GI50,"[35]; Homo sapiens, HCC-2998, five dose 0.01–100 μM",260 nM
same,GI50,[36]; [41],510 nM
same,GI50,[37]; [41],80 nM
same,GI50,[38]; [41],60 nM

# Source: article PMC8509773, “3-Pyridinylidene Derivatives of Chemically Modified Lupane and Ursane Triterpenes as Promising Anticancer Agents by Targeting Apoptosis” (International Journal of Molecular Sciences, 2021)
